Test results published in patent publication US4596710A, “Gallium chloride as a new anti-cancerous drug” (priority 1981, dated 1986).

What was measured:
[1] = Clinical and biological tolerance in patients; details: Adriamycine 50 mg + 5-fluoro-uracil 900 mg + Endoxan 900 mg; before gallium chloride; alcoholic patient
Protocol: Mrs. […] Post-operative chemotherapy (5-fluoro-uracil and endoxan) was then effected up to April 1979. At that time, […] underwent a second operation with excision of the remaining cervix and omentectomy. […] Cobalt therapy was then carried out from Nov. 5th, 1979 to Feb. 5th, 1980 on the abdomen, pelvis and diaphragm cupolas, then further chemotherapy (hexamethylmelamine) from August to October 1980. […] Treatment by gallium chloride started on Nov. 1 st, 1980 at the posology of 300 mg per day per os in three doses of 100 mg. […] An echotomograph on Dec. […] A third echotomograph was made on Jan. […] On Mar.
The treatment by gallium chloride was started on May 15th, 1981, at the posology of 600 mg/24 hours up to Sept. 20th, 1981, in association with a heparinotherapy at mini-doses. This heparinotherapy had been prescribed to prevent a phlebitis or pulmonary embolism following the surgical operation of April 1981 and had not been interrupted in order not to provoke the phenomenon of tumoral flare-up. [Calciparin (heparin calcium salt) 0.2 ml, 3 times per day by sub-cutaneous route]. […] On Sept. […] This was the case. . . […] 29th, 1981. […] Up to Nov. […] It was from Sept.
HOT... […] , was operated on May 14th, 1981 for an adenocarcinoma of the colon. […] An almost total colectomy was carried out, leaving 20 cm of sigmoid and a resection of the small bowel over a length of 15 cm. […] On Oct. […] An exploratory laparotomy was made on Nov. […] 7th, 1982.
Gallium chloride therapy was started on Sept.

[2] = cited from earlier work
[3] = Anghileri 1973; cited from earlier work

Compound | pancytopenia after combination chemotherapy, 2nd patient [1] | other results
O=c1[nH]cc(F)c(=O)[nH]1 [5-fluoro-uracil, reference compound] | a pancytopenia which would persist for several months | –
COc1cccc2c1C(=O)c1c(O)c3c(c(O)c1C2=O)C[C@@](O)(C(=O)CO)C[C@@H]3O[C@H]1C[C@H](N)[C@H](O)[C@H](C)O1 [Adriamycine, reference compound] | a pancytopenia which would persist for several months | –
O=P1(N(CCCl)CCCl)NCCCO1 (stereo not drawn) [Endoxan, reference compound] | a pancytopenia which would persist for several months | –
O=[N+]([O-])[O-].O=[N+]([O-])[O-].O=[N+]([O-])[O-].[Ga+3] [gallium nitrate] | – | renal toxicity ([2]; human therapeutics): excessive renal toxicity; results of tests in human therapeutics ([2]; in vivo): minor results
gallium | – | displacement of magnesium from the cell [3]: capable of displacing magnesium from the cell
